A short description of this data set: in vitro. To be noted: human, hela cells, % viability.
Broadly, the viability is a read-out of living cells in per cent, often relative to untreated cells. As for `O=c1[nH]c2ccc(Oc3ccc4[nH]c(=O)c(=O)[nH]c4c3)cc2[nH]c1=O` [CBK293978], the viability at 28.5 h, 10 µM was 101%. For the molecule `CC1(C)Cc2c(cnn2-c2ccc(F)cc2)C(N)C1` (centres unmarked) [CBK288200], the viability at 28.5 h, 10 µM was determined as 91.9%.

Take `N=C(N)SCCCCSC(=N)N` [CBK278304B]: the viability at 28.5 h, 10 µM turned out to be 102%. With `C=CCn1c(NCc2ccccc2NS(=O)(=O)c2ccc(C)cc2)nc2ccccc21` [CBK266393], the viability at 28.5 h, 10 µM is 111%. As for `Cc1csc(CNCc2c(C)nn(C)c2N(C)C)n1` [CBK304804], the viability at 28.5 h, 10 µM is 103%. In the case of `COc1ccc(C2(C(=O)Nc3ccc(-c4ccccc4OC)cc3)CCOCC2)cc1` [CBK285710], the viability at 28.5 h, 10 µM is 89.5%. For `CCN(CC)CC(O)Cn1ccc(-c2cccs2)n1` (centres unmarked) [CBK005967], the viability at 28.5 h, 10 µM is 88.7%. Take `O=C(Cc1cccnc1)N1CCC(Cc2ccccc2)CC1` [CBK200183]: the viability at 28.5 h, 10 µM is 97%. As for `CCN(Cc1ccccc1)C(=O)Nc1ccc2[nH]ccc2c1` [CBK155229], the viability at 28.5 h, 10 µM is 95.2%. For `CC1Cc2cc(C(O)CN3CCC4CCCCC4C3)ccc2N1S(C)(=O)=O` (centres unmarked) [CBK286456] the value was 116%.

On to `CN1CCN(C(=O)c2cc(C(C)(C)C)nn2Cc2ccc(Cl)cc2Cl)CC1` [CBK107285], for which the viability at 28.5 h, 10 µM came to 109%. As for `O=C(NCC1CC1)c1ccc(N2CCN(C(=O)c3ccccc3C(F)(F)F)CC2)nn1` [CBK153220], the figure is 111%.

Turning to `O=S(=O)(Nc1ccc(-c2nnn[nH]2)cc1)c1cc(Cl)c(Cl)s1` [CBK154745], the viability at 28.5 h, 10 µM turned out to be 116%. As for `O=S1(=O)NC=Nc2ccccc21` [CBK028171], the figure is 112%; as for `O=C(O)CCNc1ccc(Cl)cc1` [CBK057631], 75.5%; as for `O=C(c1cncnc1)N1CCCC2(CCN(C(=O)c3cc(F)c(F)cc3F)C2)C1` (centres unmarked) [CBK131564], 106%. As for `COc1ccc(Br)cc1S(=O)(=O)Nc1c(C(=O)O)sc2ncccc12` [CBK049978], the figure is 88%; as for `CCOC(=O)c1cnc2c(C)cc(Cl)cc2c1N1CCN(Cc2ccccc2)CC1` [CBK265975], 108%; as for `O=c1n(C(c2ccccc2)c2ccccc2)ccn1S(=O)(=O)c1cccc(Cl)c1` [CBK106615], 91.5%. For `COc1ccc2[nH]cc(C3CCN(Cc4cc(C)no4)CC3)c2c1` [CBK303996] the value was 91.5%; for `Cc1ccc(C)c(NC(=O)N[C@@H](CC(C)C)C(=O)O)c1` [CBK286678], 89%. In the case of `COc1ccc(/C=N/NC(=O)c2ccc(O)cc2O)cc1COc1cc(C)c(Cl)c(C)c1` [CBK263000], the viability at 28.5 h, 10 µM is 90.3%. Consider `CSc1nsc(SCC(=O)c2ccc3c(c2)OCCO3)n1` [CBK268904], for which the viability at 28.5 h, 10 µM amounted to 108%. For `CN(C)CCN1CCN(c2nc(-c3ccc(S(C)(=O)=O)cc3)cnc2N)CC1` [CBK063457], the viability at 28.5 h, 10 µM stood at 100%. Turning to `CCC(=O)N1CCC(c2nc(Cc3cccs3)no2)C1` (centres unmarked) [CBK282968], the viability at 28.5 h, 10 µM amounted to 88.5%. For `Oc1cccc(-c2nccnc2N[C@@H]2CCN(Cc3ccccc3)C2)c1` [CBK037017], the viability at 28.5 h, 10 µM was 98.2%.

For the molecule `NS(=O)(=O)c1ccc(CCNC(=O)c2ccc(C#Cc3ccccc3)cc2)cc1` [CBK263089], the viability at 28.5 h, 10 µM is 95.9%.

With `Cc1ncccc1C(=O)NC(Cc1cccs1)c1nccs1` (centres unmarked) [CBK285153], the viability at 28.5 h, 10 µM was 91.4%.

As for `COC(=O)C[C@@H](C)NC(=O)[C@](OC)(c1ccccc1)C(F)(F)F` [CBK017864], the viability at 28.5 h, 10 µM was 98.6%.

As for `COc1ccc(-c2cc(C(=O)Nc3nc4ccc(S(C)(=O)=O)cc4s3)c3ccccc3n2)cc1` [CBK033551], the viability at 28.5 h, 10 µM worked out at 95.9%. For `COCCNC(=O)C1CCN(c2nc3c(-c4ccccc4F)csc3c(=O)[nH]2)CC1` [CBK215434] the value was 92.6%; for `CC(C)c1noc(NCCc2cn3c(n2)CCCC3)n1` [CBK306444], 93.5%; for `Cc1nc(NC(=N)Nc2ccccc2C(F)(F)F)[nH]c(=O)c1Cc1ccccc1` [CBK269083], 99.8%. As for `Cn1cc(C(NC(=O)c2cn3ccsc3n2)C2CC(O)C2)cn1` (centres unmarked) [CBK307428], the figure is 110%; as for `CCC(=O)N[C@H](CC)Cn1ncc2ccccc2c1=O` [CBK284303], 77.1%; as for `O=C(Nc1cccc(C(F)(F)F)c1)Nc1cc(N2CCNCC2)c2occc2c1` [CBK061746C], 91.4%.

Regarding `Cc1c(C(=O)O)sc(S(=O)(=O)N2CCN(C(=O)CCc3cccs3)CC2)c1C(=O)O` [CBK297135], the viability at 28.5 h, 10 µM amounted to 105%. With `O=C(Cc1ccccc1F)NCCn1nc2c(cc1=O)CCCCC2` [CBK284519], the viability at 28.5 h, 10 µM was 94.7%. Regarding `Clc1ccccc1-c1nccnc1NCc1ccncc1` [CBK037472], the viability at 28.5 h, 10 µM was found to be 89.2%. As for `Cc1nn(C)c(C)c1-c1ccc(=O)n(Cc2ccc(F)cc2)n1` [CBK282258], the figure is 95.3%. As for `Cc1nnc(SCC(=O)Nc2nnc(C(C)C)s2)[nH]c1=O` [CBK022107], the figure is 87%. For the molecule `CC1CN(Cc2nc3c(c(=O)n(C)c(=O)n3C)n2CCN2CCOCC2)CC(C)O1` (centres unmarked) [CBK269340], the viability at 28.5 h, 10 µM worked out at 93.3%. Regarding `CC(=O)N1CCC(c2c(C(=O)Nc3cccc(CN4CCCC4)c3)sc3ccccc23)C1` (centres unmarked) [CBK285892], the viability at 28.5 h, 10 µM came out at 110%. As for `Oc1cc(Cc2ccccc2)cnc1CN1CCOCC1` [CBK288173], the figure is 94%; as for `CN(C(=O)Cc1ccsc1)c1nc2c(s1)CCc1c-2cnn1C` [CBK281929], 82.4%. For `O=C(Nc1ccc(Br)cc1)C1CC(O)CN1C(=O)OCc1ccccc1` (centres unmarked) [CBK263233] the value was 101%; for `O=C(CN1CCCC2(CCN(C(=O)Cc3c[nH]c4ccccc34)C2)C1)c1ccsc1` (centres unmarked) [CBK132053], 96.3%. `Cc1cc(C)n(CC2CCCCN2CC(=O)NC(C)c2ccco2)n1` (centres unmarked) [CBK305331]: the viability at 28.5 h, 10 µM was 87.9%.

For the molecule `O=C(O)CCSc1nc(-c2ccccc2)cc(=O)[nH]1` [CBK287076], the viability at 28.5 h, 10 µM amounted to 102%. Take `Nc1cccc(-c2cc(Nc3ccc(CCO)cc3)ncn2)c1` [CBK090766]: the viability at 28.5 h, 10 µM worked out at 104%. As for `Cc1nc2nc(-c3ccc(Cl)s3)cn2nc1C` [CBK284565], the figure is 103%. For `CC(C)(C)c1ccnc(N[C@H]2CO[C@H]3[C@@H]2OC[C@@H]3NS(=O)(=O)Cc2ccccc2)n1` [CBK289521] the value was 91.4%; for `O=C(c1c[nH]c(=O)c(Cl)c1)N1CCCCC1CN1CCOCC1` (centres unmarked) [CBK304416], 119%. For `CC(=O)Nc1ccc(-c2nnc(SCc3c(Cl)cccc3[N+](=O)[O-])n2C)cc1` [CBK265823], the viability at 28.5 h, 10 µM stood at 89.1%. As to `CCCc1[nH]ncc1C(=O)N1CCN(c2ccnc(N(C)C)n2)CC1` [CBK305406], the viability at 28.5 h, 10 µM was 96.4%. In the case of `Cc1cccc(OCC2CCCN(C(=O)CCc3nncn3C)C2)c1` (centres unmarked) [CBK306640], the viability at 28.5 h, 10 µM is 88.8%. As for `Cc1cc(C)nc(Nc2cccc(C3CCCN3C(=O)CCOc3ccccc3C)n2)n1` (centres unmarked) [CBK286496], the figure is 90.7%. `CCOc1ccccc1Cn1c2ccccc2c2nc3ccccc3nc21` [CBK266323]: the viability at 28.5 h, 10 µM is 101%.

Consider `COC(=O)[C@@H]1CN(C(=O)c2ccc(OC)cc2)CCN1C(C)=O` [CBK289578], for which the viability at 28.5 h, 10 µM was found to be 97.5%.

Regarding `CSc1nc2ccc(Nc3cc(C)nc4ncnn34)cc2s1` [CBK297724], the viability at 28.5 h, 10 µM came to 105%. Take `O=C(O)c1cccc(N2C(=O)C3C(C2=O)C2(c4ccccc4)C(=O)C3(c3ccccc3)C(c3ccccc3)=C2c2ccccc2)c1` (centres unmarked) [CBK262439]: the viability at 28.5 h, 10 µM was found to be 84.8%.

On to `COc1ccc2[nH]c(=O)c(CN(CCCN3CCOCC3)C(=O)Nc3cccc(Cl)c3)cc2c1` [CBK135402], for which the viability at 28.5 h, 10 µM amounted to 96.8%.

Regarding `Nc1ncc(-c2ccc(C(=O)N3CCOCC3)cc2)cc1C(=O)NCCc1ccc(O)cc1` [CBK158577], the viability at 28.5 h, 10 µM was 92.5%. In the case of `O=C(CN1C(=O)[C@@H]2CCCN2C(=O)c2ccccc21)N1CCCC1` [CBK282434], the viability at 28.5 h, 10 µM was 104%. For `Cc1ncsc1C(=O)N1CCCCC1c1nc2ccccc2[nH]1` (centres unmarked) [CBK283531] the value was 95.9%. For the molecule `Cn1c(=O)[nH]c(=O)c2c1nc(CN1CCOCC1)n2Cc1c(F)cccc1Cl` [CBK270085], the viability at 28.5 h, 10 µM was found to be 90.5%.

On to `Cc1sc(NC(=S)NC(=O)C(C)(C)C)c(C(N)=O)c1C` [CBK268943], for which the viability at 28.5 h, 10 µM stood at 97.1%.

For the molecule `COc1cccc(NC(=O)N2CCC3(CC2)NC(=O)c2cc(-c4ccoc4)ccc2O3)c1` [CBK115855], the viability at 28.5 h, 10 µM worked out at 102%. As for `Cc1cccc(C)c1OCC(=O)Nc1c[nH]c(=O)[nH]c1=O` [CBK263358], the figure is 46.2%; as for `N#CCCCN1C(=O)C(O)(CC(=O)c2ccccn2)c2ccccc21` (centres unmarked) [CBK307373], 121%. In the case of `CC1C(=O)N2CCCc3cc(S(=O)(=O)NCc4ccc5c(c4)OCO5)cc1c32` (centres unmarked) [CBK294419], the viability at 28.5 h, 10 µM came out at 107%. As for `COCc1cn(C2CCN(c3cc(-n4cc(C)cn4)ncn3)CC2)nn1` [CBK307388], the viability at 28.5 h, 10 µM was determined as 92.9%. For `COc1cc(/C=N/NC(=O)c2ccncc2)ccc1OCc1ccc(Cl)cc1` [CBK262454] the value was 114%; for `CN1CC(CO)Oc2ccccc21` (centres unmarked) [CBK003872C], 104%; for `CN1CCN(CCC(=O)N/N=C/c2ccc(O)cc2O)CC1` [CBK262849], 94.2%.

Take `CN(CC(=O)O)c1ccccc1C(=O)O` [CBK260996]: the viability at 28.5 h, 10 µM stood at 98.2%. For `Cc1c(C#N)c(=O)oc2ccccc12` [CBK007705] the value was 95.2%; for `CC(C)(C)c1nnc(NC(=O)c2ccc(F)cc2)s1` [CBK086855], 89%; for `Cc1ccc(COCSc2nc3ccccc3n2CC(O)CO)cc1C` (centres unmarked) [CBK021195], 85.1%. For `CCOC(=O)c1cccc(NS(=O)(=O)c2cc(F)c(Br)cc2F)c1` [CBK034333] the value was 89.2%.

The values are drawn from PMC12040169 (PLOS Biology, 2025).
